According to patent US8324264B1, “Inhibitors of bacterial biofilms and related methods” (Sequoia Sciences, Inc., priority 2011, dated 2012):
In brackets after ≈: the same amount, converted by molar mass.

Assays:
[1] = test system: E. coli biofilms; test: Biofilm growth assay (spreading biofilm on semi-solid agar), E. coli; assay type: cell-based; conditions: biofilm growth assay, overnight 37° C., vs negative controls, Tables 1-5; for IC85: Escherichia coli, read-out: E. coli: concentration that reduces the area of the spreading biofilm by greater than or equal to 85%
Text: (§1) “Biofilm Growth Assay” refers to an assay performed on semi-solid agar surface where the bacteria collectively move out from an inoculation point. To those skilled in the art, the act of bacteria collectively moving out from an inoculation point on a semi-solid surface may be referred to as swarming or a spreading biofilm. (Anderson, et al Microbiology, 2003, 149, 37-46; Daniels, et al. FEMS Microbiology Reviews, 2004, 28, 261-289). The procedure to perform this assay is described in detail in the Examples. This type of surface motility by bacteria has been reported in the literature by those skilled in the art. […] These references are incorporated herein by reference in their entirety.
(§2) The biofilm growth assay was carried out to measure swarming or biofilm spreading on semi-solid agar media in round plates (for example, 100×15 mm), also referred to as Petri dishes. For E. coli, the plates contained LB medium with 0.6% agar and 0.5% glucose. P. aeruginosa plates were made with M8 agar supplemented with 0.2% glucose, 100 μM CaCl2, 1 mM MgSO4, and 0.5% Casamino acids. The agar plates of this assay consisted of 0.4% to 0.7% agar (Bacto or Noble agar), although other media may also be used as described in the literature and known to those skilled in the art. Test compounds at the desired concentration were added to the cooled, autoclaved media. Portions of the media were then poured into the plates (20 mL/plate), and the plates allowed to dry at room temperature for approximately 3 to 4 hours. Alternatively, however, plates may be dried in a laminar flow hood for approximately fifteen to twenty minutes. Overnight cultures were grown in a 37° C. shaker in LB (E. coli) or TSB (P. aeruginosa). Plates were inoculated by placing 5 μL of the appropriate overnight culture in the centers of the plates. The plates then were incubated overnight at 37° C. The area of the zone of spreading bacteria was then measured and replicates are averaged. Percent inhibition was calculated as 100×(area without compound−area with compound)/(area without compound). An active compound was considered that which reduces the area of the spreading biofilm compared to negative controls by greater than or equal to 85%. The values shown in Table 1 are the concentrations of compounds (μg/ml) tested in the biofilm growth assay that reduce the area of the spreading biofilm compared to negative controls by greater than or equal to 85% unless noted differently in Table 1. A > (“greater than” symbol) as used in Table 1 is well understood to those skilled in the art as an indication that the listed concentration was not effective at this concentration.
(§3) All of the compounds shown in Tables 2, 3, 4, and 5, below, were prepared semi-synthetically from oleanolic acid, except for Compounds 2 and 3. Compound 2 was prepared from ursolic acid. Compound 3 was prepared from hederagenin, but could also be prepared from an oleanolic acid analog with a hydroxyl at C23 or C24. These compounds were tested in the spreading biofilm assay according to the methods detailed in Example I, above. The values shown in Tables 2, 3, 4, and 5 are the concentrations of compounds tested in the biofilm growth assay that reduce the area of the spreading biofilm compared to negative controls by greater than or equal to 85%.

[2] = test system: P. aeruginosa biofilms; test: Biofilm growth assay (spreading biofilm on semi-solid agar), P. aeruginosa; assay type: cell-based; conditions: biofilm growth assay, overnight 37° C., vs negative controls, Tables 1-5; for IC85: Pseudomonas aeruginosa, read-out: P. aeruginosa: concentration that reduces the area of the spreading biofilm by greater than or equal to 85%
Text: as §1, §2, §3

Structure (SMILES) | E. coli: concentration that reduces the area of the spreading biofilm by greater than or equal to 85% [1] [µg/mL] | P. aeruginosa: concentration that reduces the area of the spreading biofilm by greater than or equal to 85% [2] [µg/mL] | IC85 [1] [µg/mL] | IC85 [2] [µg/mL]
CNc1ccc(C2=C3[C@@H]4CC(C)(C)CC[C@]4(C(=O)O)CC[C@@]3(C)[C@]3(C)CC[C@H]4C(C)(C)c5n[nH]c(N)c5C[C@]4(C)C3C2)cn1 (stereo partly drawn) [Example 43, (4aS,6aS,6bR,8aR,13aR,15bS)-12-Amino-2,2,6a,6b,9,9,13a-heptamethyl-15-(6-(methylamino)pyridin-3-yl)-2,3,4,4a,5,6,6a,6b,7,8,8a,9,11,13,13a,13b,14,15b-octadecahydro-1H-chryseno[1,2-f]indazole-4-a-carboxylic acid] | 1 | 1 | – | –
CC1(C)CC[C@]2(C(=O)O)CC[C@]3(C)C(=C(c4ccoc4)CC4[C@@]5(C)Cc6c(n[nH]c6N)C(C)(C)[C@@H]5CC[C@]43C)[C@@H]2C1 (stereo partly drawn) [Example 26, (4aS,6aS,6bR,8aR,13aR,15bS)-12-Amino-15-(furan-3-yl)-2,2,6a,6b,9,9,13a-heptamethyl-2,3,4,4a,5,6,6a,6b,7,8,8a,9,11,13,13a,13b,14,15b-octadecahydro-1H-chryseno[1,2-f]indazole-4-a-carboxylic acid] | 1 | 0.25 | – | –
CNc1[nH]nc2c1C[C@@]1(C)C(CC[C@]3(C)C1CC=C1C4CC(C)(C)CC[C@]4(C(=O)O)CC[C@]13C)C2(C)C (stereo partly drawn) [I] | – | – | 8 (≈ 15.8 µM) | > 16
Cc1c([C@]23CCC(C)(C)CC2C2=CCC4[C@@]5(C)Cc6c(n[nH]c6N)C(C)(C)C5CC[C@@]4(C)[C@]2(C)CC3)n[nH]c1O (stereo partly drawn) [Compound 82, 3-((4aS,6aS,6bR,13aR)-12-Amino-2,2,6a,6b,9,9,13a-heptamethyl-2,3,4,4a,5,6,6a,6b,7,8,8a,9,11,13,13a,13b,14,15b-octadecahydro-1H-chryseno[1,2-f]indazol-4-a-yl)-4-methyl-1H-pyrazol-5-ol] | 1 | 0.5 | – | –
CC1(C)CC[C@]2(C(=O)O)CC[C@]3(C)C(=C(c4ccsc4CN4CCOCC4)CC4[C@@]5(C)Cc6c(n[nH]c6N)C(C)(C)C5CC[C@]43C)C2C1 (stereo partly drawn) [Example 34, (4aS,6aS,6bR,13aR)-12-Amino-2,2,6a,6b,9,9,13a-heptamethyl-15-(2-(morpholinomethyl)thiophen-3-yl)-2,3,4,4a,5,6,6a,6b,7,8,8a,9,11,13,13a,13b,14,15b-octadecahydro-1H-chryseno[1,2-f]indazole-4-a-carboxylic acid] | 1 | 1 | – | –
CC1(C)CC[C@]2(C(=O)Nc3nnc(N)s3)CC[C@]3(C)C(=CCC4[C@@]5(C)Cc6c(n[nH]c6N)C(C)(C)C5CC[C@]43C)C2C1 (stereo partly drawn) [Compound 71, (4aS,6aS,6bR,13aR)-12-Amino-N-(5-amino-1,3,4-thiadiazol-2-yl)-2,2,6a,6b,9,9,13a-heptamethyl-2,3,4,4a,5,6,6a,6b,7,8,8a,9,11,13,13a,13b,14,15b-octadecahydro-1H-chryseno[1,2-f]indazole-4-a-carboxamide] | – | – | 2 (≈ 3.38 µM) | 0.5 (≈ 0.845 µM)
CC1(C)CC[C@]2(C(=O)O)CC[C@]3(C)C(=C(c4ccc(N)nc4)CC4[C@@]5(C)Cc6c(n[nH]c6N)C(C)(C)[C@@H]5CC[C@]43C)[C@@H]2C1 (stereo partly drawn) [Example 41, (4aS,6aS,6bR,8aR,13aR,15bS)-12-Amino-15-(6-aminopyridin-3-yl)-2,2,6a,6b,9,9,13a-heptamethyl-2,3,4,4a,5,6,6a,6b,7,8,8a,9,11,13,13a,13b,14,15b-octadecahydro-1H-chryseno[1,2-f]indazole-4-a-carboxylic acid] | 2 | 1 | – | –
CC1(C)CC[C@]2(C(=O)O)CC[C@]3(C)C(=C(c4ccoc4CN4CCCC4)CC4[C@@]5(C)Cc6c(n[nH]c6N)C(C)(C)C5CC[C@]43C)C2C1 (stereo partly drawn) [Example 37, (4aS,6aS,6bR,13aR)-12-Amino-2,2,6a,6b,9,9,13a-heptamethyl-15-(2-(pyrrolidin-1-ylmethyl)furan-3-yl)-2,3,4,4a,5,6,6a,6b,7,8,8a,9,11,13,13a,13b,14,15b-octadecahydro-1H-chryseno[1,2-f]indazole-4-a-carboxylic acid] | 1 | >1 | – | –
CC1(C)CC[C@]2(C(=O)O)CC[C@]3(C)C(=CCC4[C@@]5(C)Cc6c[nH]nc6C(C)(C)C5CC[C@]43C)C2C1 (stereo partly drawn) [D] | – | – | 4 (≈ 8.36 µM) | 1 (≈ 2.09 µM)
C[C@@H]1CC[C@]2(C(=O)O)CC[C@]3(C)C(=CCC4[C@@]5(C)C[C@H](CO)[C@H](O)C(C)(C)C5CC[C@]43C)C2[C@H]1C (stereo partly drawn) [B] | 8 | 4 | – | –
C[C@@H]1c2n[nH]c(N)c2C[C@]2(C)C3CC=C4[C@@H]5CC(C)(C)CC[C@]5(C(=O)O)CC[C@@]4(C)[C@]3(C)CC[C@@H]12 (stereo partly drawn) [Example 3, (4aS,6aS,6bR,8aS,9S,13aS,15bS)-12-Amino-2,2,6a,6b,9,13a-hexamethyl-2,3,4,4a,5,6,6a,6b,7,8,8a,9,11,13,13a,13b,14,15b-octadecahydro-1H-chryseno[1,2-f]indazole-4-a-carboxylic acid] | – | – | 1 (≈ 2.08 µM) | 0.5 (≈ 1.04 µM)
CC1(C)CC[C@]2(C(=O)O)CC[C@]3(C)C(=C(c4ccoc4CN4CCNCC4)CC4[C@@]5(C)Cc6c(n[nH]c6N)C(C)(C)[C@@H]5CC[C@]43C)[C@@H]2C1 (stereo partly drawn) [Example 35, (4aS,6aS,6bR,8aR,13aR,15bS)-12-Amino-2,2,6a,6b,9,9,13a-heptamethyl-15-(2-(piperazin-1-ylmethyl)furan-3-yl)-2,3,4,4a,5,6,6a,6b,7,8,8a,9,11,13,13a,13b,14,15b-octadecahydro-1H-chryseno[1,2-f]indazole-4-a-carboxylic acid] | 1 | >1 | – | –
CC1(C)CC[C@]2(C(=O)O)CC[C@]3(C)C(=C(c4cccc(N)c4)CC4[C@@]5(C)Cc6c(n[nH]c6N)C(C)(C)[C@@H]5CC[C@]43C)[C@@H]2C1 (stereo partly drawn) [Example 15, (4aS,6aS,6bR,8aR,13aR,15bS)-12-Amino-15-(3-aminophenyl)-2,2,6a,6b,9,9,13a-heptamethyl-2,3,4,4a,5,6,6a,6b,7,8,8a,9,11,13,13a,13b,14,15b-octadecahydro-1H-chryseno[1,2-f]indazole-4-a-carboxylic acid] | 1 | 0.25 | – | –
CC1(C)CC[C@]2(C(=O)O)CC[C@]3(C)C(=CCC4[C@@]5(C)Cc6c(n[nH]c6CO)C(C)(C)C5CC[C@]43C)C2C1 (stereo partly drawn) [G] | – | – | > 8 | > 8
CC1(C)CC[C@]2(C(=O)O)CC[C@]3(C)C(=C(c4cncnc4)CC4[C@@]5(C)Cc6c(n[nH]c6N)C(C)(C)[C@@H]5CC[C@]43C)[C@@H]2C1 (stereo partly drawn) [Example 30, (4aS,6aS,6bR,8aR,13aR,15bS)-12-Amino-2,2,6a,6b,9,9,13a-heptamethyl-15-(pyrimidin-5-yl)-2,3,4,4a,5,6,6a,6b,7,8,8a,9,11,13,13a,13b,14,15b-octadecahydro-1H-chryseno[1,2-f]indazole-4-a-carboxylic acid] | 1 | 2 | – | –
